Measured values published in PMC4366844, “Biochemical and Pharmacological Characterizations of ESI-09 Based EPAC Inhibitors: Defining the ESI-09 “Therapeutic Window”” (Scientific Reports, 2015).
≈ marks a conversion by molar mass, not a printed value. Where “and” joins values, the source holds several entries; their conditions need not be identical. Equal values may be shown once. Entries after “also recorded” stand apart in the source; their conditions may differ. Read-outs that look alike come from different tables or passages of the source.

Tests used:
[1] = molecular target: T1, EPAC2 (Mus musculus, UniProt Q9EQZ6); experiment: 8-NBD-cAMP competition assay; format: binding
T1 construct: made in house
T1 sequence (Q9EQZ6 1-1011): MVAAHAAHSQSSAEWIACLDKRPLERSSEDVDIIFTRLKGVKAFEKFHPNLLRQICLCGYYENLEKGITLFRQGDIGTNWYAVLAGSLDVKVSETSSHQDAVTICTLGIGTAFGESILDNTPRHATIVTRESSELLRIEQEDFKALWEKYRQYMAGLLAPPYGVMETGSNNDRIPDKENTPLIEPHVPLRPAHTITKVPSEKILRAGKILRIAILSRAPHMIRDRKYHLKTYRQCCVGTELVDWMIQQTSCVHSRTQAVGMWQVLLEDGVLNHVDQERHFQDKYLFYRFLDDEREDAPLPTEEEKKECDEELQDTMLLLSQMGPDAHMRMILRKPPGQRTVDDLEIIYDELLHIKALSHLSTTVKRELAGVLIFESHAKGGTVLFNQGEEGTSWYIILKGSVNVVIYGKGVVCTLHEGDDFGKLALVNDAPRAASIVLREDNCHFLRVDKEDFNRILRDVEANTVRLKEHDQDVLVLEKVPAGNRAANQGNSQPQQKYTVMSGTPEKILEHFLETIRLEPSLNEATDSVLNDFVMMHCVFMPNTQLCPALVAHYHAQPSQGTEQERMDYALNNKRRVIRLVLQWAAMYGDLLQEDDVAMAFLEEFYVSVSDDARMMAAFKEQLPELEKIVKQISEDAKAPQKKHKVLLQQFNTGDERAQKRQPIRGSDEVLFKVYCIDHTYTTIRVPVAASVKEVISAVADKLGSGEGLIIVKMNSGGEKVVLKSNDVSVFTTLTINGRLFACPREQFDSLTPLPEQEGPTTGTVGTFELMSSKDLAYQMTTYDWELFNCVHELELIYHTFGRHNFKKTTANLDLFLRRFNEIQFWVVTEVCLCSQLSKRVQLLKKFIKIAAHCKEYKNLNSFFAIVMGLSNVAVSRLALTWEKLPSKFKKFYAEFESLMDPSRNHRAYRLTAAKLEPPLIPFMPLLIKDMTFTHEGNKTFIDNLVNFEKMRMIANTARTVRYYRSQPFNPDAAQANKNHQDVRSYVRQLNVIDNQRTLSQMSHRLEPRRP
Protocol: Test compounds at various concentrations were added to the reaction mix, and fluorescence intensity signals from the 8-NBD probe before and after the addition of test compounds was monitored using a SpectaMaxM2 microplate reader (Molecular Devices, Silicon Valley, CA, USA) with excitation/emission wavelengths set at 470/540 nm.

[2] = molecular target: T2, EPAC1h 149-318 (Homo sapiens, UniProt O95398); experiment: {15N,1H} HSQC NMR of EPAC1 cAMP binding domain
T2 construct: the CBD of human EPAC1 (aa. 149-318); made in house
T2 sequence (O95398 149-318 isoform O95398-3): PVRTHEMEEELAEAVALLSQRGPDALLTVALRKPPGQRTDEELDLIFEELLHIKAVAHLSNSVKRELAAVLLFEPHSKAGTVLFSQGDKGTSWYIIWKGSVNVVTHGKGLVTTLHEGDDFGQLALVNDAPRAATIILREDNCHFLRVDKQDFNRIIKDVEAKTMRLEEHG
Excerpt: In addition to the thermo-unfolding experiments, {^15N, ^1H} Heteronuclear Single Quantum Coherence (HSQC) spectra were acquired to characterize the interaction between ESI-09 and the CBD of human EPAC1 (aa. 149-318) and address whether ESI-09 acts as a non-specific denaturant. The {^15N, ^1H} chemical shifts serve as excellent sensors for protein structure and dynamics as they provide information about the local chemical environment surrounding the amides of every amino acid (except prolines) within the protein. EPAC1h (149-318) has already been extensively analyzed by NMR spectroscopy. It results in HSQC spectra with well-dispersed peaks, which are representative of a fully folded protein (Fig. 5A). […]
EPAC1h 149-318 was expressed and purified using previously documented protocols[24][25][26][27] and dialyzed into NMR buffer (50 mM Tris, 50 mM NaCl, 2 mM EDTA, 2 mM EGTA, 1 mM DTT and 0.02% NaN3, pH 7.6). […] Gradient- and sensitivity- enhanced {^15N, ^1H} heteronuclear single quantum coherence (HSQC) spectra with 128 (t1) and 1024 (t2) complex points and spectral widths of 31.82 and 14.06 ppm for the ^15N and ^1H dimensions, respectively, were recorded with 8 scans and a recycle delay of 1 s. […] All spectra were processed with NMRPipe[41] and analyzed in Sparky[42].

[3] = molecular target: T1, EPAC2; experiment: In vitro GEF activity assay (Rap1b-BODIPY-GDP), EPAC2; format: biochemical; conditions: for mode of inhibition toward cAMP: cAMP titration with 5 µM ESI-09 or 1 µM HJC0726
[4] = design: method as in Our recent studies; conditions: ref Our recent studies; cited from earlier work
[5] = test system: fatal rickettsioses; conditions: mice, daily dose of 10 mg/kg IP or 50 mg/kg oral gavage; cited from earlier work
[6] = molecular target: T1, EPAC2; experiment: Protein thermal denaturation assay (Sypro Orange), EPAC2
Protocol: Thermal denaturation assay was performed using a BioRad CFX96 Touch^TM Real-Time PCR Detection system as described previously. […] Melting temperatures (Tm) were calculated by fitting the sigmoidal melt curve to the Boltzmann equation as described using GraphPad Prism, with R^2 values of >0.99[40].

[7] = test system: ovalbumin-induced oral tolerance; conditions: mice, daily dose of 10 mg/kg IP or 50 mg/kg oral gavage; cited from earlier work
[8] = test system: pancreatic ductal adenocarcinoma; conditions: in vivo administration; cited from earlier work
[9] = Solubility measurement by HPLC analysis; format: physicochemical
Protocol: ESI-09 and its analogs were synthesized following the recently reported synthetic procedures. The solubility of the selected compounds was measured by HPLC analysis following the reported protocol.

[10] = molecular target: T3, full-length EPAC1 (Homo sapiens, UniProt O95398); experiment: In vitro GEF activity assay (Rap1b-BODIPY-GDP), EPAC1; format: biochemical; conditions: vs ESI-09
T3 construct: made in house
T3 sequence (O95398 1-881 isoform O95398-3): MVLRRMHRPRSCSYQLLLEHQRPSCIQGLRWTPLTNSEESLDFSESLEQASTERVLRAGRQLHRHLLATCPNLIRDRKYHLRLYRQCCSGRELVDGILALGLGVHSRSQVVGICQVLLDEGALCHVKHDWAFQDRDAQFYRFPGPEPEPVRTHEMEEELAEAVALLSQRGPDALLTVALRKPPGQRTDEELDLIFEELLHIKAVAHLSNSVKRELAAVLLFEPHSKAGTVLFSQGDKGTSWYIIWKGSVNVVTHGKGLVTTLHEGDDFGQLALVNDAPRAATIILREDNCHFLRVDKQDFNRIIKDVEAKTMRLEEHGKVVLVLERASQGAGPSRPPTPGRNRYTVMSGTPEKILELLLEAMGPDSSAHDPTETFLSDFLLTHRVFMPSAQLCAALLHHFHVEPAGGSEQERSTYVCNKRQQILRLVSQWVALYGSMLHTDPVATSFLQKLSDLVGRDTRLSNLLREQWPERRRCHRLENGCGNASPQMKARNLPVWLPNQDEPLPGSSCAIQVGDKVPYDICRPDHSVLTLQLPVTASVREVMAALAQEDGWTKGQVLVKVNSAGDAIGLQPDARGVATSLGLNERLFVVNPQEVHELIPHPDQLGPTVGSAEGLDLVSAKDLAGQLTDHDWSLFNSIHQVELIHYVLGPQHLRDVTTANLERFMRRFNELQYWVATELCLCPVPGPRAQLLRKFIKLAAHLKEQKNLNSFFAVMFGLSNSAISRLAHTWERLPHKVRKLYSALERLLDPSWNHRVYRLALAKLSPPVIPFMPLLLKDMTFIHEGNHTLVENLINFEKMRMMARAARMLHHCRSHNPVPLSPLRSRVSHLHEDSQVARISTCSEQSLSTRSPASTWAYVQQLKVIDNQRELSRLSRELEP
Excerpt: The guanine nucleotide exchange activity of EPAC proteins can be biochemically determined using a coupled exchange assay, in which Rap1 loaded with a fluorescent GDP analog, 2′-/3′-O-(N′-methylanthraniloyl)guanosine-5′-O-diphosphate (MANT-GDP), is used as the substrate. The exchange of Rap1-bound MANT-GDP by free unlabeled GDP leads to a decrease in fluorescence as MANT-GDP contains an environment sensitive fluorophore, MANT, whose fluorescence intensity increases upon binding to Rap1. However, the MANT-GDP based GEF assay is not well suited for ESI-09 analogs because they absorb lights within the excitation emission wavelengths of the fluorophore.
Recombinant full-length human EPAC1, mouse EPAC2 and C-terminal truncated Rap1B(1-167) were purified as described previously.
In vitro EPAC GEF activity was measured as previously described with the exception that purified Rap1B(1-167) was loaded with BODIPY-GDP instead of MANT-GDP[39]. […] The exchange reaction was monitored using a Spectramax M2 Plate Reader (Molecular Devices) with the excitation and emission wavelengths set at 485 and 515 nm, respectively. […]

[11] = test system: EPAC2; conditions: cited from earlier work
[12] = 50 nM EPAC2, 60 nM 8-NBD-cAMP, read-out: IC50, potency in competing with 8-NBD-cAMP binding to EPAC2
[13] = water, read-out: Solubility in water (converted)

`CC(C)(C)c1cc(C(=O)/C(C#N)=N/Nc2ccc(Cl)c(Cl)c2)no1` [HJC0777] gave an IC50 [1, 12] of 3 ± 0.6 µM.
In the case of `CC(C)(C)c1cc(C(=O)C(C#N)=NNc2cccc(Cl)c2)no1` [ESI-09, 3-[5-(tert-butyl)isoxazol-3-yl]-2-[2-(3-chlorophenyl) hydrazono] -3-oxopropanenitrile], the “effect on HSQC spectrum of EPAC1h 149-318” value ([2]; 50 μM ESI-09, 100 μM protein) is reported as “Only minor chemical shift changes”, the “effect on HSQC spectrum of EPAC1h 149-318” value ([2]; 500 μM ESI-09, 100 μM protein) is reported as “almost every peak broadens beyond detection” and the “mode of inhibition toward cAMP” value [3] is reported as “reversible competitive EPAC2 inhibitors”. The IC50 [1, 12] was 9 ± 1.2 µM, the bioavailability [4] was “excellent bioavailability” and the “effect in fatal rickettsioses” value [5] was “protecting mice from fatal rickettsioses”. For the same compound, the “effect on Tm of EPAC2” value ([6]; ESI-09 1-20 µM, no cAMP) was “didn't shift the Tm to lower temperature; also recorded: no significant difference in thermo-denaturation”, the “effect on Tm of EPAC2” value ([6]; ESI-09 in the presence of 100 µM cAMP) was “didn't lead to further changes in Tm” and the “effect on ovalbumin-induced oral tolerance” value [7] was “compromising ovalbumin-induced oral tolerance”. The “effect on pancreatic ductal adenocarcinoma invasion and metastasis” value [8] was “inhibits pancreatic ductal adenocarcinoma invasion and metastasis”, the solubility ([9]; ethanol, organic solvent or mixture, ethanol, read-out: Solubility in ethanol (converted)) was 15000 µg/mL and 45300 µM and the solubility [9, 13] was 5.95 ± 0.83 µg/mL (≈ 18 µM).
With `CC(C)(C)c1cc(C(=O)/C(C#N)=N/Nc2cc(Cl)cc(Cl)c2)no1` [HJC0726] the “potency relative to ESI-09 in inhibiting EPAC1” value [10] was “five-fold more potent”, the “mode of inhibition toward cAMP” value [3] was “reversible competitive EPAC2 inhibitors” and the “potency relative to ESI-09 in inhibiting EPAC2” value ([3]; vs ESI-09) was “five-fold more potent”. For the same compound, the IC50 [1, 12] was 1.9 ± 0.3 µM, the “increase in potency relative to ESI-09 in the 8-NBD-cAMP competition assay” value ([1]; vs ESI-09) was 5 fold and the solubility ([9]; ethanol, organic solvent or mixture, read-out: Solubility in ethanol (converted)) was 6800 µg/mL and 18600 µM. For the same compound, the solubility [9, 13] was 45.4 µg/mL and 124 µM.
Work on `CC(C)(C)c1cc(C(=O)/C(C#N)=N/Nc2cccc(Cl)c2Cl)no1` [HJC0750] yielded an IC50 [1, 12] of 35.6 ± 7.8 µM.
In the case of `Nc1ncnc2c1ncn2[C@@H]1O[C@@H]2COP(=O)(O)O[C@H]2[C@H]1O` [cAMP, reference compound], the “melting temperature Tm of EPAC2” value ([6]; in the presence of 100 µM cAMP (about 48°C without)) is reported as “around 46 °C”.
With `CC(C)(C)c1cc(C(=O)/C(C#N)=N/Nc2ccc(Cl)cc2)no1` [HJC0694] the IC50 [1, 12] was 26.5 ± 4.1 µM.
In the case of `CC(C)(C)c1cc(C(=O)/C(C#N)=N/Nc2cc(Cl)ccc2Cl)no1` [HJC0696], the IC50 [1, 12] is reported as 7.3 ± 1.2 µM.
In the case of `CC(C)(C)c1cc(C(=O)/C(C#N)=N/Nc2ccccc2Cl)no1` [HJC0693], the IC50 [1, 12] is reported as 28.3 ± 4 µM.
`CC(C)(C)c1cc(C(=O)/C(C#N)=N/Nc2ccccc2)no1` [HJC0695] gave an IC50 [1] of 59.8 ± 9.4 µM.
In the case of `Cc1ccc(S(=O)(=O)c2c(C)cc(C)cc2C)cc1` [ESI-05], the EPAC isoform selectivity [11] is given as “exclusively selective for EPAC2”.
